Test results as given in ChEMBL document CHEMBL1201862, “PubChem BioAssay data set” (2004).
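Values below derive from 48-hour exposures of cells grown in 96-well plates, with endpoints linearly interpolated between the two concentrations bracketing the appropriate inhibition level. GI50 = concentration required for 50% inhibition of growth.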 Calls of active or inactive are those of the source. Cut-off read from the data, not from the text of the source: active = GI50 up to about 1.1 µM and inactive = higher.

What was measured:
Assay in all cases: inhibition of tumour cell growth, NCI panel, 48 h
COLO 205 = test system: COLO 205
HT-29 = test system: HT-29
K562 = test system: K562
KM12 = test system: KM12
Malme-3M = test system: Malme-3M
NCI-H460 = test system: NCI-H460
RXF 393 = test system: RXF 393
SF-268 = test system: SF-268
SF-295 = test system: SF-295
SNB-19 = test system: SNB-19
SNB-75 = test system: SNB-75
SR = test system: SR
SW-620 = test system: SW-620
TK-10 = test system: TK-10
UACC-257 = test system: UACC-257
HOP-92 = test system: HOP-92
UACC-62 = test system: UACC-62

SMILES | GI50 (COLO 205) | GI50 (HT-29) | GI50 (K562) | GI50 (KM12) | GI50 (Malme-3M) | GI50 (NCI-H460) | GI50 (RXF 393) | GI50 (SF-268) | GI50 (SF-295) | GI50 (SNB-19) | GI50 (SNB-75) | GI50 (SR) | GI50 (SW-620) | GI50 (TK-10) | GI50 (UACC-257) | GI50 (HOP-92) | GI50 (UACC-62)
COC(=O)Cc1cc(=O)n2c([nH]c3ccccc32)c1C#N | > 100 µM (inactive) | > 100 µM (inactive) | > 100 µM (inactive) | > 100 µM (inactive) | 81.3 µM (inactive) | 35.9 µM (inactive) | 97.3 µM (inactive) | > 100 µM (inactive) | > 100 µM (inactive) | > 100 µM (inactive) | 0.42 µM (active) | > 100 µM (inactive) | > 100 µM (inactive) | > 100 µM (inactive) | > 100 µM (inactive) | – | –
CC1=NN(C(=O)c2ccc(Cl)cc2)C(=O)/C1=C/c1cccc([N+](=O)[O-])c1 | > 100 µM (inactive) | > 100 µM (inactive) | > 100 µM (inactive) | > 100 µM (inactive) | > 100 µM (inactive) | > 100 µM (inactive) | > 100 µM (inactive) | > 100 µM (inactive) | > 100 µM (inactive) | > 100 µM (inactive) | – | – | > 100 µM (inactive) | > 100 µM (inactive) | > 100 µM (inactive) | > 100 µM (inactive) | > 100 µM (inactive)
C=CCNC(=O)C(C)C1CCC2(C)C=CC(=O)C(C)=C2C1O (configuration not stated) | > 100 µM (inactive) | > 100 µM (inactive) | > 100 µM (inactive) | > 100 µM (inactive) | – | > 100 µM (inactive) | > 100 µM (inactive) | > 100 µM (inactive) | > 100 µM (inactive) | > 100 µM (inactive) | > 100 µM (inactive) | – | > 100 µM (inactive) | – | > 100 µM (inactive) | > 100 µM (inactive) | > 100 µM (inactive)
Cc1nc(-n2nc(-c3ccccc3)cc2-c2ccccc2)sc1C(=O)/C=C/c1ccc(Cl)c(Cl)c1 | 28.7 µM (inactive) | > 10 µM (inactive) | 15.8 µM (inactive) | 8.67 µM (inactive) | 32.4 µM (inactive) | > 100 µM (inactive) | 28.1 µM (inactive) | 33.1 µM (inactive) | 16.7 µM (inactive) | 16.3 µM (inactive) | – | 17.2 µM (inactive) | 21.5 µM (inactive) | 43.2 µM (inactive) | 25.8 µM (inactive) | – | 4.89 µM (inactive)
COc1ccc(CCNCc2cccc(OC)c2OC)cc1OC | > 100 µM (inactive) | 88.7 µM (inactive) | > 100 µM (inactive) | > 100 µM (inactive) | > 100 µM (inactive) | > 100 µM (inactive) | > 100 µM (inactive) | > 100 µM (inactive) | > 100 µM (inactive) | > 100 µM (inactive) | > 100 µM (inactive) | – | > 100 µM (inactive) | > 100 µM (inactive) | > 100 µM (inactive) | 38.1 µM (inactive) | > 100 µM (inactive)
O=c1ccc2ccccc2o1 [COUMARIN] | > 100 µM (inactive) | > 100 µM (inactive) | > 100 µM (inactive) | > 100 µM (inactive) | > 100 µM (inactive) | > 100 µM (inactive) | > 100 µM (inactive) | > 100 µM (inactive) | > 100 µM (inactive) | > 100 µM (inactive) | > 100 µM (inactive) | – | > 100 µM (inactive) | > 100 µM (inactive) | > 100 µM (inactive) | > 100 µM (inactive) | > 100 µM (inactive)
Cc1cc(Cl)ccc1NC(=O)CCCC(=O)C(C(=O)c1ccccc1)c1ccccc1 (configuration not stated) | > 100 µM (inactive) | > 100 µM (inactive) | > 100 µM (inactive) | > 100 µM (inactive) | > 100 µM (inactive) | > 100 µM (inactive) | – | > 100 µM (inactive) | > 100 µM (inactive) | – | – | – | – | – | > 100 µM (inactive) | > 100 µM (inactive) | > 100 µM (inactive)
Cc1ccc2c(c1)C1C(CO2)C(c2ccccc2)=NN1c1ccccc1 (configuration not stated) | > 100 µM (inactive) | 69.5 µM (inactive) | > 100 µM (inactive) | > 100 µM (inactive) | > 100 µM (inactive) | > 100 µM (inactive) | > 100 µM (inactive) | > 100 µM (inactive) | > 100 µM (inactive) | > 100 µM (inactive) | > 100 µM (inactive) | – | > 100 µM (inactive) | > 100 µM (inactive) | > 100 µM (inactive) | 80.5 µM (inactive) | –
CCOC(=O)/C(C#N)=C(N)/C(=N\Nc1cccc(C(F)(F)F)c1)C(=O)OCC | > 100 µM (inactive) | > 100 µM (inactive) | – | – | > 100 µM (inactive) | – | – | > 100 µM (inactive) | > 100 µM (inactive) | > 100 µM (inactive) | > 100 µM (inactive) | > 100 µM (inactive) | > 100 µM (inactive) | > 100 µM (inactive) | > 100 µM (inactive) | > 100 µM (inactive) | > 100 µM (inactive)
CC1CCCP(=O)(c2ccccc2)CC1 (configuration not stated) | > 100 µM (inactive) | > 100 µM (inactive) | > 100 µM (inactive) | > 100 µM (inactive) | > 100 µM (inactive) | > 100 µM (inactive) | > 100 µM (inactive) | > 100 µM (inactive) | > 100 µM (inactive) | > 100 µM (inactive) | > 100 µM (inactive) | – | > 100 µM (inactive) | > 100 µM (inactive) | > 100 µM (inactive) | – | > 100 µM (inactive)
c1c(N2CCOCC2)s[s+]c1N1CCOCC1 | – | > 100 µM (inactive) | > 100 µM (inactive) | > 100 µM (inactive) | > 100 µM (inactive) | > 100 µM (inactive) | > 100 µM (inactive) | > 100 µM (inactive) | > 100 µM (inactive) | > 100 µM (inactive) | > 100 µM (inactive) | > 100 µM (inactive) | > 100 µM (inactive) | 76.6 µM (inactive) | > 100 µM (inactive) | > 100 µM (inactive) | > 100 µM (inactive)
COc1ccc(C(=O)C(C(=O)C(=O)NCCCNC(=O)C(=O)C(C(=O)c2ccc(OC)cc2)c2ccc(OC)cc2)c2ccc(OC)cc2)cc1 (configuration not stated) | > 100 µM (inactive) | > 100 µM (inactive) | > 100 µM (inactive) | > 100 µM (inactive) | > 100 µM (inactive) | > 100 µM (inactive) | – | > 100 µM (inactive) | > 100 µM (inactive) | > 100 µM (inactive) | > 100 µM (inactive) | > 100 µM (inactive) | > 100 µM (inactive) | > 100 µM (inactive) | > 100 µM (inactive) | > 100 µM (inactive) | > 100 µM (inactive)
COc1ccc(NC(=O)CSc2nnc(Cc3ccccc3)o2)cc1 | 94.8 µM (inactive) | 74.1 µM (inactive) | > 100 µM (inactive) | > 100 µM (inactive) | > 100 µM (inactive) | > 100 µM (inactive) | > 100 µM (inactive) | 88.1 µM (inactive) | 55.6 µM (inactive) | 97.7 µM (inactive) | > 100 µM (inactive) | – | > 100 µM (inactive) | > 100 µM (inactive) | > 100 µM (inactive) | – | > 100 µM (inactive)
Cc1ccc(NC(=O)/C(CC(=O)c2c[n+]([O-])c3ccccc3[n+]2[O-])=N\NC(=O)C[n+]2ccccc2)cc1 | > 100 µM (inactive) | > 100 µM (inactive) | 48.6 µM (inactive) | > 100 µM (inactive) | > 100 µM (inactive) | > 100 µM (inactive) | > 100 µM (inactive) | > 100 µM (inactive) | > 100 µM (inactive) | > 100 µM (inactive) | > 100 µM (inactive) | > 100 µM (inactive) | > 100 µM (inactive) | > 100 µM (inactive) | > 100 µM (inactive) | – | > 100 µM (inactive)
O=P(c1ccccc1)(c1ccccc1)C1CC=C(c2ccccc2)C2(CCCC2)C1 (configuration not stated) | 22.8 µM (inactive) | 59.2 µM (inactive) | 31.4 µM (inactive) | 40.4 µM (inactive) | 34.8 µM (inactive) | 59.2 µM (inactive) | 9.23 µM (inactive) | 90.4 µM (inactive) | 72.3 µM (inactive) | 48.6 µM (inactive) | 30.7 µM (inactive) | – | 81.3 µM (inactive) | 72.3 µM (inactive) | 43.7 µM (inactive) | 12.5 µM (inactive) | 37.6 µM (inactive)
COC(=O)C1CC2(c3ccccc3)C(=O)c3ccccc3N2O1 (configuration not stated) | 98.4 µM (inactive) | 33.3 µM (inactive) | 31.8 µM (inactive) | 72.4 µM (inactive) | > 100 µM (inactive) | 47.3 µM (inactive) | – | > 100 µM (inactive) | > 100 µM (inactive) | > 100 µM (inactive) | 40.5 µM (inactive) | 18.9 µM (inactive) | 39.3 µM (inactive) | > 100 µM (inactive) | > 100 µM (inactive) | 49.5 µM (inactive) | 34 µM (inactive)
Cc1ccc(/C=C/C(=O)c2ccc([N+](=O)[O-])cc2)cc1 | > 100 µM (inactive) | > 100 µM (inactive) | > 100 µM (inactive) | > 100 µM (inactive) | > 100 µM (inactive) | > 100 µM (inactive) | > 100 µM (inactive) | > 100 µM (inactive) | > 100 µM (inactive) | > 100 µM (inactive) | > 100 µM (inactive) | 79.1 µM (inactive) | > 100 µM (inactive) | > 100 µM (inactive) | > 100 µM (inactive) | – | > 100 µM (inactive)
CN1C(=N\S(=O)(=O)c2ccc(Cl)cc2)/C(=N/N=P(c2ccccc2)(c2ccccc2)c2ccccc2)c2ccccc21 | > 100 µM (inactive) | > 100 µM (inactive) | > 100 µM (inactive) | > 100 µM (inactive) | > 100 µM (inactive) | > 100 µM (inactive) | > 100 µM (inactive) | > 100 µM (inactive) | > 100 µM (inactive) | > 100 µM (inactive) | > 100 µM (inactive) | > 100 µM (inactive) | > 100 µM (inactive) | > 100 µM (inactive) | > 100 µM (inactive) | – | > 100 µM (inactive)
